Patent US20260345624A1, “TREATMENT OF PROSTATE CANCER BY PROMOTING PDE4D7” (KONINKLIJKE PHILIPS N.V., priority 2022, published 2026)
Entries after “also recorded” stand apart in the source; their conditions may differ.

Experiments:
[1] = test system: LNCaP WT cells; experiment: xCELLigence real-time proliferation of WT LNCaP cells; type: cell-based; conditions: for proliferation of WT LNCaPs: PDE4 activator, 1 and 10 μM
Procedure: (§1) xCELLigence Real-Time Cell Analysis (RTCA)
(§2) Real-time cell growth was analysed using the xCELLigence RTCA system (Agilent), which measures real-time cell adhesion across gold microelectrode biosensors on 96 well electronic plates (E-plates) within a 37 °C incubator with 5% CO2. Cellular adhesion influences electrical impedance which is converted into the cell index (CI) via RTCA software. Initial background measurements were recorded with 100 μL RPMI 1640 medium, followed by addition of 100 μL LNCaP cell suspension (10,000 cells/wells) for measurement of CI over time. Approximately 24 h after seeding, cells were treated with specified concentrations of drugs. Negative controls containing either 0.1% DMSO or untreated cells were also included. CI was transformed to normalised CI via the RTCA software to timepoint of treatment.

[2] = test system: PDE4D7-knockdown LNCaP P1 cells; experiment: xCELLigence real-time proliferation of PDE4D7-knockdown P1 LNCaP cells; type: cell-based; conditions: for resistance to olaparib, PDE4D7-reduced cells: olaparib 10 and 30 μM
Source text: Stable shRNA-mediated lentiviral transduced LNCaP cell lines were generated by AMSBIO (Table 1). Briefly, shRNA-PDE4D7 was cloned into a lentivector and delivered into LNCaP clone FGC cells (ATCC) via lentivirus (MOI=10). Cells were maintained in puromycin-supplemented medium prior to selection of stably transduced cells. A stable shRNA-PDE4D7 LNCaP cell line was then re-transduced with lentivirus delivering PDE4D7 to generate a re-introduced cell line. Scrambled-shRNA was used as a control. All cells were cultured in RPMI 1640 medium (Gibco D), supplemented with 10% (v/v) foetal bovine serum, 1% (v/v) L-Glutamine and 1% (v/v) penicillin/streptomycin, and stored within a 37 °C incubator with 5% CO2.
as §1, §2

[3] = test system: P1-PDE4D7+/+ LNCaP cells; experiment: xCELLigence real-time proliferation of P1 LNCaP cells with PDE4D7 re-expression; type: cell-based
[4] = test system: mCRPC; conditions: Lloyd et al., 2020; cited from earlier work
[5] = test system: PARP cleavage in LNCaP WT; experiment: PARP/cleaved PARP western blot in WT LNCaP; type: cell-based; conditions: N=3
Procedure: (§3) FIG. 12: Ratio of PARP and cleaved PARP (PARPc) by western blot analysis in LNCaP WT and LNCaP PDE4D7 knockdown cell line P1 upon incubation with 0.1% DMSO (control), 10 μM Olaparib, and 10 nM docetaxel including quantitation of western blot bands normalised to DMSO.
(§4) Cells were lysed in 3T3 lysis buffer (50 mM NaCl, 50 mM NaF, 30 mM sodium pyrophosphate, 25 mM HEPES, 2.5 mM EDTA, 10% (v/v) glycerol, 1% (v/v) Triton X-100; pH 7.5) supplemented with cOmplete™ EDTA-free protease inhibitor cocktail (Sigma-Aldrich). Lysed cells were rotated end-over-end for 30 minutes at 4 °C, then centrifuged for 10 minutes at 13,000 RPM at […]. Supernatants were collected and protein concentration determined via Bradford assay. Equal concentrations of protein samples were separated via SDS-polyacrylamide gel electrophoresis (SDS-PAGE) and transferred onto nitrocellulose membranes for western blot. Membranes were blocked in 5% (w/v) milk powder in TBS-T for 1 h prior to primary and secondary antibody incubations. […]

[6] = test system: PARP cleavage in LNCaP P1; experiment: PARP/cleaved PARP western blot in PDE4D7-knockdown P1 LNCaP; type: cell-based; conditions: N=3
Procedure: as §3, §4

[7] = test system: advanced PCa; conditions: in combination with docetaxel; cited from earlier work
[8] = test system: LNCaP cells; conditions: Feiersinger et al., 2018; cited from earlier work
[9] = test system: cAMP at membrane of WT LNCaPs; experiment: cAMP FRET (CUTie) at plasma membrane of WT LNCaP; type: cell-based; conditions: rolipram
Procedure: (§5) FIG. 18: Influence of PDE4D7 expression on cAMP dynamics within LNCaPs. Analysis of FRET ratio (YFP/CFP) at cytosol of WT (A) or P1 (C) LNCaPs, or at membrane of WT (B) or P1 (D) LNCaPs upon treatment with rolipram or combined treatment of forskolin+IBMX. (E & F) Real-time growth analysis of WT (G) and P1 (H) cells upon treatment with PDE4 activator MR-L2 (1-10 μM). Slope analysis from 0-48 post-treatment. Mean+/−SEM, N=3, **p<0.01, ***p<0.001.
(§6) Genetically encoded cAMP-fluorescent resonance energy transfer (FRET) probes were used to investigate CAMP dynamics at subcellular regions in WT and P1 LNCaPs. […] CUTie probes targeting the plasma-membrane (AKAP-79) or cytosol (CYTO-pDUAL) were obtained from the Zaccolo lab (REF). […] Given that PDE4D7 is known to be substantially membrane located [FIG. 1C]

[10] = test system: cAMP at membrane of P1 LNCaPs; experiment: cAMP FRET (CUTie) at plasma membrane of P1 LNCaP; type: cell-based; conditions: rolipram
Procedure: as §5, §6

[11] = test system: cAMP at cytosol of WT LNCaPs; experiment: cAMP FRET (CUTie) in cytosol of WT LNCaP; type: cell-based; conditions: rolipram
Procedure: as §5, §6

[12] = test system: cAMP at cytosol of P1 LNCaPs; experiment: cAMP FRET (CUTie) in cytosol of P1 LNCaP; type: cell-based; conditions: rolipram
Procedure: as §5, §6

## CCc1nc(-c2ccc(Cl)c(F)c2)nn1CC(=O)NCc1cc(Cl)cc(Cl)c1 [ML-R2]
[1]
  proliferation of WT LNCaPs: no effect on proliferation in WT LNCaPs at either concentration
[1]; listed as MLR2
  proliferation of WT LNCaPs: no effect on growth of WT LNCaPs
[1]; listed as MR-L2
  proliferation of WT LNCaPs: no effect on proliferation in WT LNCaPs
[2]; PDE4 activator, 1-10 μM
  growth of P1 cells: inhibition of cell growth in P1 cells
[2]; PDE4 activator, 1-10 μM, listed as MLR2
  growth of P1 cells: attenuates growth of P1 LNCaPs
[2]; PDE4 activator, 1-10 μM, listed as MR-L2
  growth of P1 cells: inhibition of growth in P1 cells
[3]; PDE4 activator, 10 μM
  MLR2 sensitivity after PDE4D7 reintroduction to P1: rescues phenotype of WT LNCaPs on MLR2 sensitivity

## C[C@@H]1COCCN1c1cc(C2([S@](C)(=N)=O)CC2)nc(-c2cc[nH]c3nccc2-3)n1 [ceralasertib, Ceralasertib]
[1]; ceralasertib 10-30 μM
  growth inhibition, WT: most significant growth inhibition
[1]; summary statement, WT vs P1
  growth inhibition independent of PDE4D7 expression, WT: reduce tumor growth independent of PDE4D7 expression levels; also recorded: inhibit LNCaP cell growth irrespective of PDE4D7 expression status
[2]; ceralasertib 0-30 μM
  sensitivity from growth curves, PDE4D7-knockdown (compared with WT): highly susceptible to ATR-inhibition via ceralasertib
[2]; ceralasertib 10-30 μM
  growth inhibition, P1: most significant growth inhibition
  sensitivity of PDE4D7-knockdown cells: extremely sensitive to ATR inhibition via ceralasertib
[2]; summary statement, WT vs P1
  growth inhibition independent of PDE4D7 expression, P1: reduce tumor growth independent of PDE4D7 expression levels; also recorded: inhibit LNCaP cell growth irrespective of PDE4D7 expression status
[4]
  synergistic effects in combination with olaparib: enhance synergistic effects in combination with olaparib in mCRPC; also recorded: enhance synergistic effects in combination with olaparib in metastatic CRPC

## CC(=O)O[C@@]12CO[C@@H]1C[C@H](O)[C@@]1(C)C(=O)[C@H](O)C3=C(C)[C@@H](OC(=O)[C@H](O)[C@@H](NC(=O)OC(C)(C)C)c4ccccc4)C[C@@](O)([C@@H](OC(=O)c4ccccc4)[C@H]21)C3(C)C [docetaxel, Docetaxel]
[1]; docetaxel 10 μM
  growth of WT LNCaPs: effective in WT
[1]; docetaxel, all concentrations (5-25 μM), slope 0-48 h
  growth of WT LNCaPs vs DMSO: significantly reduced growth
[2]; docetaxel 10 μM
  growth of P1 cells: no effect
[2]; docetaxel, all concentrations (5-25 μM) except 10 μM, slope 0-48 h
  growth of PDE4D7-knockdown LNCaPs vs DMSO: significantly reduced growth
[3]; docetaxel 10 μM
  sensitivity to docetaxel after PDE4D7 re-introduction, vs P1: more sensitive to docetaxel treatment than P1
[5]; docetaxel 10 nM
  PARP cleavage, WT LNCaP: increased PARP cleavage
[6]; docetaxel 10 nM
  cleaved PARP ratio, P1 LNCaP: No increase in cleaved PARP ratio

## COC(=O)Nc1nc2ccc(C(=O)c3ccccc3)cc2[nH]1 [mebendazole]
[1]; mebendazole 1-10 μM
  WT cell growth: significant downregulation of cell growth in a dose-dependent manner
[2]; mebendazole 1-10 μM, compared with WT
  effect on P1 cells: far more substantial and more significant, with initiation of immediate cell death in the cells at both concentrations; also recorded: PDE4D7-knockdown confers sensitivity to mebendazole in comparison to WT LNCaPs
[7]
  potential in advanced PCa treatment: showed potential in advanced PCa treatment in combination with docetaxel

## CC#C[C@]1(O)CC[C@H]2[C@@H]3CCC4=CC(=O)CCC4=C3[C@@H](c3ccc(N(C)C)cc3)C[C@@]21C [mifepristone]
[1]; mifepristone 30 μM
  growth of WT LNCaPs: successfully inhibited growth
[1]; mifepristone 0.3-10 μM
  WT cell proliferation vs DMSO: neither WT or P1 cell proliferation were reduced compared to DMSO
[2]; mifepristone 30 μM
  proliferation of P1 LNCaPs: significantly enhanced proliferation
[2]; mifepristone 30 μM, compared to lower concentrations
  growth curve over time, P1 LNCaPs: initial growth was inhibited compared to lower concentrations, however this effect eventually wore off
[2]; mifepristone 0.3-10 μM
  P1 cell proliferation vs DMSO: neither WT or P1 cell proliferation were reduced compared to DMSO

## O=C(c1cc(Cc2n[nH]c(=O)c3ccccc23)ccc1F)N1CCN(C(=O)C2CC2)CC1 [olaparib, Olaparib]
[1]; olaparib 0-30 μM
  LNCaP WT proliferation: decreased in a dose-dependent manner
[1]; olaparib 3, 10 and 30 μM, slope 0-30 h
  growth rate (slope analysis), WT: significant reductions in WT growth
[2]; olaparib 0-30 μM
  effect on PDE4D7-deficient LNCaP proliferation: minimal
[2]; olaparib 0.3 and 1 μM, slope 0-30 h
  growth rate (slope analysis), P1: unexpected reduction in slope
[2]
  resistance to olaparib, PDE4D7-reduced cells: resistant to olaparib; also recorded: resistance
[2]; listed as Olaparib
  resistance to olaparib, PDE4D7-reduced cells: resistance
[2]; overall conclusion
  resistance to PARP inhibition via olaparib upon PDE4D7 knockdown: resistant to PARP inhibition via olaparib; also recorded: confers resistance to PARP-inhibition via olaparib; also recorded: enhances resistance to olaparib
[3]; olaparib 10 μM
  sensitivity to olaparib after PDE4D7 re-introduction: more sensitive to olaparib treatment; also recorded: re-sensitised
[3]; olaparib 10 μM, listed as Olaparib
  sensitivity to olaparib after PDE4D7 re-introduction: enhances sensitivity to Olaparib
[3]; olaparib 10 μM, slope 0-48 h
  growth vs olaparib-treated P1 and DMSO-treated P1-PDE4D7+/+ cells: statistically significant downregulation in growth
[5]; olaparib 10 μM
  PARP cleavage, WT LNCaP: increased PARP cleavage
[6]; olaparib 10 μM
  cleaved PARP ratio, P1 LNCaP: No increase in cleaved PARP ratio
[8]
  effect against LNCaP cells: effective against LNCaP cells

## COc1ccc(C2CNC(=O)C2)cc1OC1CCCC1 (stereo not shown) [rolipram]
[9]
  FRET ratio / cAMP, membrane, WT: downregulation of FRET ratio in the membrane compartment of WT LNCaPs, indicating an increase in cAMP concentration
[10]
  FRET ratio, membrane, P1: no obvious difference in FRET ratio
[11]
  FRET ratio, cytosol, WT: no observable difference
[12]
  FRET ratio, cytosol, P1: no observable difference
